In patent publication US8178579B2, “Dioxanes and uses thereof” (President and Fellows of Harvard College, priority 2001, dated 2012):

Test system: histone deacetylation
Experiment: acetylated lysine / acetylated histone in cells (AcLysine cytoblot, immunofluorescence, Western blot)
Type: cell-based, human
Settings: A549 (also BS-C-1) cells, tubacin, niltubacin 2 μM, histacin 20 μM, library ~2-5 μM, 18 h
Method: A549 cells were seeded at a density of 4,000 cells/50 μl in DMEM+ in white tissue culture-treated 384-well plates (Nalge Nunc) using a Multidrop 384 liquid dispenser (Labsystems). Library small molecules were pinned twice (100-150 nl/pin) from ˜1 mM stock solutions (DMSO) and incubated for 18 hours. For the ITSA1+AcTubulin assay, ITSA1 (50 μM) was added four hours after pin-transfer of library molecules. Media was aspirated with a 16-channel wand. For the acetylated α-tubulin cytoblot (AcTubulin), 40 μl/well of fixation solution (3.7% formaldehyde (1:10 from 37% stock) in Tris-buffered saline (TBS, 0.15 M NaCl, 0.02 M Tris-Cl, pH 7.4) was added and plates incubated for twenty minutes at room temperature. After aspiration, 30 μl 100% methanol (−20° C.) was added and incubated for five minutes at room temperature. After aspirating and washing three times with 90 μl of antibody dilution buffer (ADB, TBS/2% bovine serum albumin, 0.1% TritonX-100) the wells were blocked for twenty minutes in ADB. After aspirating, 20 μl/well of ADB containing anti-acetylated α-tubulin antibody (mouse; 1:1000) and anti-mouse IgG horseradish peroxidase (HRP)-conjugated antibody (1:750) was added and incubated overnight (4° C.). For the anti-acetyl lysine cytoblot (AcLysine), 40 μl/well of fixation solution (95% ethanol/5% acetic acid, −20° C.) was added and plates incubated for five minutes at room temperature. Wells were aspirated, washed, and blocked in ADB as for the AcTubulin protocol. After aspirating, 20 μl/well of ADB containing anti-acetylated lysine (rabbit; 1:375) and anti-rabbit IgG-HRP conjugated antibody (1:750) was added and incubated overnight (4° C.). For the anti-acetylated histone H3 (AcHistH3) and anti-acetylated histone H4 (AcHistH4) cytoblots, cells were fixed, washed, and blocked in ADB as for the AcLysine cytoblot. After aspirating, 20 μl/well of ADB containing anti-acetylated histone H3 antibody (rabbit, 1:500) or anti-acetylated histone H4 antibody (rabbit, 1:500) was added and incubated for two hours at room temperature. Wells were aspirated and washed twice with 80 μl of ADB. After aspirating, 20 μl/well of ADB containing anti-rabbit IgG-HRP conjugated antibody (1:1000) was added and incubated for two hours (room temperature). For the AcTubulin and AcLysine assays, plates were washed three times with TBS before adding 20 μl/well of enhanced chemiluminescent (ECL) mixture. For the AcHistH3 and AcHistH4 assays, plates were washed three times with 80 μl TBS with 1% Triton X-100 and once with 80 μl TBS before adding 20 μl/well of ECL mixture. Plates were read on an Analyst plate reader (LJL Biosystems) with an integration time of 0.1 seconds.
1,3-dioxanes from single polystyrene macrobeads were prepared as 1-2 mM stock solutions in DMSO as described [Hubbert, C., Guardiola, A., Shao, R., Kawaguchi, Y., Ito, A., Nixon, A., Yoshida, M., Wang, X. F., and Yao, T. P. (2002). HDAC6 is a microtubule-associated deacetylase. Nature 417, 455-458]. Bead decoding and structure determination were as described [See for example, Hubbert, C., Guardiola, A., Shao, R., Kawaguchi, Y., Ito, A., Nixon, A., Yoshida, M., Wang, X. F., and Yao, T. P. (2002). HDAC6 is a microtubule-associated deacetylase. Nature 417, 455-458; and Piperno, G., LeDizet, M., and Chang, X. J. (1987). Microtubules containing acetylated alpha-tubulin in mammalian cells in culture. J. Cell Biol. 104, 289-302]. Small molecules (˜2-5 μM) of interest were retested using a sample from the plate of stock solutions by fluorescence microscopy and comparison to the effects of trichostatin (300 nM to 1 μM).
A549 cells were seeded at a density of 50,000/200 μl in DMEM+ on the surface of glass coverslips on top of Parafilm in a 10 cm dish and allowed to attach overnight. For detection of acetylated α-tubulin, cells were permeabilized and fixed with 100 mM K-PIPES, pH 6.8, 10 mM EGTA, 1 mM MgCl2, 0.2% triton X-100, 0.2% glutaraldehyde for fifteen minutes. […]

Compound | effect on histone deacetylation / lysine or histone acetylation in cells | effect on histone deacetylation / lysine or histone acetylation in cells (listed as 415 N3) | effect on histone deacetylation / lysine or histone acetylation in cells (listed as JCWII114)
CC(/C=C/C(=O)NO)=C\[C@@H](C)C(=O)c1ccc(N(C)C)cc1 [TSA, trichostatin A, reference compound] | an inhibitor of both α-tubulin and histone deacetylation |  | 
O=C(CCCCCCC(=O)Nc1ccc([C@@H]2OC(c3ccc(CO)cc3)C[C@H](CSc3nc(-c4ccccc4)c(-c4ccccc4)o3)O2)cc1)NO (stereo partly shown) [tubacin] | did not affect histone acetylation | no effect on lysine acetylation | no visible effect on histone deacetylation
